Source: patent EP4260858A1, “COMPOSITION COMPRISING PRIMIDONE AND PEG” (Christian-Albrechts-Universität zu Kiel, priority 2022, dated 2023)

Assays:
[1] = system: L929 fibroblasts; assay: TNFα + zVAD induced RIPK1-dependent necroptosis, FACS (7-AAD / Annexin V); assay type: cell-based
Description: (§1) The commercially available drug Necrostatin-1 (Nec-1s, 20 µM) acted as an internal control (inhibitor) of RIPK1-mediated cell death. All drugs were added 30 min before TNFα stimulation. RIPK1-mediated cell death was quantified by FACS analysis using 7-amino-actinomycin D and phosphatidylserine accessibility (Annexin V staining) as markers. […] The commercially available drug Necrostatin-1 (Nec-1s, 20 µM) acted as an internal control (inhibitor) of RIPK1-mediated cell death. All drugs were added 30 min before TNFα stimulation. RIPK1-mediated cell death was quantified by FACS analysis using 7-amino-actinomycin D and phosphatidylserine accessibility (Annexin V staining) as markers. […] All drugs were added 30 min before TNFα stimulation. […] All drugs were added 30 min before TNFα stimulation. Necroptotic cell death was quantified by FACS analysis using 7-amino-actinomycin D and phosphatidylserine accessibility (Annexin V staining) as markers.
(§2) The known RIPK1 kinase inhibitor Nec-1s was used as a control.
(§3) RIPK3-expressing NIH3T3 cells and L929 fibroblasts were obtained from the American Type Culture Collection (Manassas, VA, USA). Both cell lines were cultured in DMEM (Gibco, Thermo Fisher Scientific, Schwerte, Germany) supplemented with 10% (v/v) FCS (PAN-Biotech GmbH, Aidenbach, Germany), 100 U/ml penicillin, and 100 µg/ml streptomycin (both from Merck Millipore GmbH, Darmstadt, Germany). The cell lines were cultured in a humidified 5% CO2 atmosphere at 37°C. Negativity for mycoplasma was routinely checked using a MycoAlert Mycoplasma Detection Kit (Lonza, Cologne, Germany). Unless stated otherwise, assays were conducted using 1x 10^5 cells in 1 ml of medium.
(§4) Recombinant purified TNFα (# 570104) was purchased from BioLegend (Amsterdam, the Netherlands). The pan-caspase inhibitor zVAD-fmk (# 4026865) was purchased from Bachem (Weil am Rhein, Germany), Nec-1s (2263-1-BV) was obtained from BioCat (Heidelberg, Germany); primidone (# P7295) was purchased from Sigma-Aldrich Chemie GmbH (Taufkirchen, Germany). Polyethylenglycol (PEG300, # 202371) was purchased from Merck Millipore, Dimethyl sulfoxide (DMSO, A3672) was obtained from AppliChem (via Thermo Fisher Scientific).
(§5) For testing the ability of primidone to protect against RIPK1-driven cell death, cells were kept in 1 ml medium. To test 1 mM, 0.75 mM and 0.5 mM primidone in PEG300, we pipetted 15.6 µl, 11.7 µl and 7.8 µl, respectively, of the 64.144 mM stock solution to the 1 ml of the medium that contains the cells. […]
(§6) Phosphatidylserine exposure to the outer cell membrane of apoptotic cells or inner plasma membrane of necrotic cells and incorporation of 7-amino-actinomycin D (7-AAD) into necrotic cells was quantified by flow cytometry analysis. […]

[2] = system: NIH3T3 cells; assay: as above; assay type: cell-based
Description: as §1, §2, §3, §4, §5, §6

[3] = molecular target: T1, RIPK1 (Homo sapiens, UniProt Q13546); details: background statement, WO 2021/048162 A1; cited from earlier work
T1 sequence (Q13546 1-671): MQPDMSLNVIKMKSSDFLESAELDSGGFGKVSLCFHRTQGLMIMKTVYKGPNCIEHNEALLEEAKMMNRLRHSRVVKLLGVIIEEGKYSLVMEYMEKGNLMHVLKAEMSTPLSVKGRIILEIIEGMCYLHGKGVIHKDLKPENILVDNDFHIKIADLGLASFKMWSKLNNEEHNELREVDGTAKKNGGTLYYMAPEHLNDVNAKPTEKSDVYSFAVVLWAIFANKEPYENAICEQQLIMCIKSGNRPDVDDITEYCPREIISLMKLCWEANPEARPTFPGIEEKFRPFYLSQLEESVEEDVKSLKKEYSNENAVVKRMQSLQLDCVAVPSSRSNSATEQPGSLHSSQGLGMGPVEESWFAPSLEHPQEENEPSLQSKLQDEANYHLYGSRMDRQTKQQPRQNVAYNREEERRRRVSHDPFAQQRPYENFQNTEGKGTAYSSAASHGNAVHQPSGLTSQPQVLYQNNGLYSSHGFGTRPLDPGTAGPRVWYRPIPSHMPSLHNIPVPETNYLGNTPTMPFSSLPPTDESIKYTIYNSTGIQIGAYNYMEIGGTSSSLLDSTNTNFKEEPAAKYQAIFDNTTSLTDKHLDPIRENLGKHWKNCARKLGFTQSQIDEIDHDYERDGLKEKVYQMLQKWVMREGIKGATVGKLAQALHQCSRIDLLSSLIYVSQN

[4] = cited from earlier work
[5] = primidone solubilized in PEG300, control Nec-1s 20 µM

CCC1(c2ccccc2)C(=O)NCNC1=O [primidone, 5-Ethyl-5-phenyl-1,3-diazinane-4,6-dione]
protection from RIPK1-mediated necroptosis ([1]; 10 ng/ml TNFα + 25 µM zVAD, 24 h, 37°C, equimolar primidone (0.5-1 mM) dissolved in DMSO or PEG300, added 30 min before TNFα): able to protect
protective effects compared with Nec-1s [1, 5]: as strong as those observed for Nec-1s
protection from RIPK1-mediated necroptosis ([2]; 100 ng/ml TNFα + 25 µM zVAD, 24 h, 37°C, equimolar primidone (0.5-1 mM) dissolved in DMSO or PEG300, added 30 min before TNFα): able to protect
protective effects compared with Nec-1s [2, 5]: as strong as those observed for Nec-1s
activation of RIPK1 by phosphorylation or autophosphorylation [3]: prevents the activation of RIPK1
soluble in dimethyl sulfoxide (DMSO) in amounts of up to ([4]; DMSO): up to 44 mg/ml
soluble in ethanol up to a concentration ([4]; ethanol): about 3 mg/ml
soluble in water up to a concentration ([4]; water): about 0.5 mg/ml
